Experimental data: patent US11905231B1, “Solid forms, salts and polymorphs of anti-fibrotic compounds” (Certa Therapeutics Pty Ltd, priority 2023, dated 2024)
Converted amounts (≈) assume the structure as drawn. Like-named read-outs stand apart in the source and are kept apart here.

Tests used:
[1] = Oral pharmacokinetic study in Sprague-Dawley rats; settings: rat; for F (fraction absorbed, bioavailability): based on AUCInf
Method: Bioavailability is determined by the equation AUC=F·D/CLT, wherein AUC is the area under the plot of plasma concentration, F is the absolute bioavailability, D is the dose, and CLT is the total clearance.
The rats received a single oral dose of 20 mg/kg body weight (b.w.). The doses were prepared as a 2.0 mg/mL suspension in a vehicle of 20 mM Na2HPO4 buffer containing 5% (v/v) DMSO, 0.4% (v/v) 1M NaOH and 0.4% (v/v) Tween 80 and a dose volume of 10 mL/kg b.w.
Pharmacokinetic analysis was performed on the average plasma concentration for each time point.

[2] = Thermogravimetric Analysis (TGA) weight loss; assay type: physicochemical; settings: for Total weight loss by TGA: from r.t. to 350° C. (or to decomposition if lower); for Weight loss (TGA): when heated from about 25° C. to about 120° C.
physchem = settings: 37 °C, thermodynamic from solid
Method: The term “FaSSIF media” refers to Fasted State Simulated Intestinal Fluid media prepared using FaSSIF powder and buffer concentrate obtained from the commercial source Biorelevant (London, UK, biorelevant.com). The FaSSIF powder contains sodium taurocholate, lecithin, sodium chloride, monobasic sodium phosphate and sodium hydroxide. The FaSSIF media is prepared as described at https://biorelevant.com/learning_center/what-is-fassif/. Briefly the pH6.5 buffer containing 0.42 g of NaOH, 3.95 g of NaH2PO4·H2O and 6.19 g of NaCl was dissolved in 0.9 L of purified water and the pH of the solution was adjusted to 6.5 using sodium hydroxide 1N or hydrochloric acid 1N and made up to volume (1 L) with purified water at room temperature. Dissolve 2.24 g of the FaSSIF powder in 0.5 L of the pH6.5 buffer, stirring until the powder is completely dissolved, and then make up to volume (1 L) with buffer at room temperature.
The samples were stirred using a magnetic stirrer at 37° C. […] The samples were filtered via centrifugation (12,000 rpm, 5 min). The supernatant was diluted (2×) with HPLC grade solvent and analyzed by HPLC.
HPLC gradient was as follows:
The pH 1.2, pH 4.5, and pH 6.8 media were prepared as standard aqueous buffered solutions following USP <39>.
As used herein, the term “FaSSIF media” means Fasted Stated Simulated Intestinal Fluid media prepared according to the method known in the art.

[3] = Dynamic Vapor Sorption (DVS) hygroscopicity; settings: at 80% RH, 25° C., measured during 0% RH to 95% RH increase
From the text: The change in water content is recited as a % change in mass of the starting sample and all such water sorption (DVS) values recited herein will be understood to explicitly include numerical values within a +/−0.2% variance.
The humidity is held constant at 30% RH until the mass change of the sample reaches equilibrium, as determined by the rate of change of weight being 0.01%/minute or less. The humidity is then changed to the next step value and the consequent mass change measured, and so on.
The hygroscopicity values recited herein refer to total water gain since the start of the experiment only and so may not necessarily be equivalent to the actual total water content of the sample.

[4] = single oral dose 20 mg/kg, 0.5 h post dose
[5] = single oral dose 20 mg/kg, 1 h post dose
[6] = single oral dose 20 mg/kg, 2 h post dose
[7] = single oral dose 20 mg/kg, 4 h post dose
[8] = single oral dose 20 mg/kg, 8 h post dose
[9] = single oral dose 20 mg/kg, 24 h post dose
[10] = single oral dose 20 mg/kg, plasma
[11] = single oral dose 20 mg/kg, plasma, mean
[12] = single oral dose 20 mg/kg, plasma, extrapolated area under the curve
[13] = Sprague-Dawley, in vivo, po, 20 mg/kg
[14] = FaSSIF (pH 7.5), pH 7.5, fassif
[15] = FeSSIF (pH 7.8), pH 7.8, fessif
[16] = pH 1.2 aqueous buffer, pH 1.2, simulated gastric fluid

For `C#CCOc1ccc(/C=C/C(=O)Nc2ccccc2C(=O)O)cc1OC.N` [Ammonium salt], the “Maximum plasma concentration (Cmax) compared to the other tested compounds” value ([1]; single oral dose 20 mg/kg) was “highest maximum plasma concentration”, the “Mean concentration (plasma)” value [1, 4] was 32700 ng/mL and the “Mean concentration (plasma)” value [1, 5] was 44033 ng/mL. The “Mean concentration (plasma)” value [1, 6] was 35033 ng/mL, the “Mean concentration (plasma)” value [1, 7] was 20833 ng/mL and the “Mean concentration (plasma)” value [1, 8] was 14400 ng/mL. For the same compound, the “Mean concentration (plasma)” value [1, 9] was 575 ng/mL, the AUCExtr [1, 10] was 0.932% and the AUClast [1, 11] was 313.832 µg·h/mL. It also gave a Cmax [1, 11] of 44033 ng/mL, a t1/2 [1, 11] of 3.62 h and a tmax [1, 11] of 1.00 h. For the same compound, the AUCInf [1, 12] was 317.034 µg·h/mL, the “F (fraction absorbed, bioavailability)” value ([1]; single oral dose 20 mg/kg) was 64% and the “Weight loss by TGA” value ([2]; from 0° C. to 100° C.) was 7.07% from 0 °C to. The “Weight loss by TGA” value ([2]; from 100° C. to 170° C.) was 4.48% from 100 °C to, the “Weight loss by TGA” value ([2]; from r.t. to 120° C.) was 8.94% from r.t. to and the “Total weight loss by TGA” value [2] was 11.55% total weight.

Work on `C#CCOc1ccc(/C=C/C(=O)Nc2ccccc2C(=O)O)cc1OC` [Free form] yielded an AUCExtr [1, 13] of 2.10%, an AUCInf [1, 13] of 170.145 µg·h/mL and an AUClast [1, 13] of 166.522 µg·h/mL. For the same compound, the bioavailability [1, 13] was 35%, the half-life [1, 13] was 4.23 h and the tmax [1, 13] was 3.67 h. For the same compound, the “Mean concentration (plasma)” value ([1]; Sprague-Dawley, in vivo, po, 20 mg/kg, 0.5 h) was 9947 ng/mL, the “Mean concentration (plasma)” value ([1]; Sprague-Dawley, in vivo, po, 20 mg/kg, 1 h) was 16427 ng/mL and the “Mean concentration (plasma)” value ([1]; Sprague-Dawley, in vivo, po, 20 mg/kg, 2 h) was 13217 ng/mL. The “Mean concentration (plasma)” value ([1]; Sprague-Dawley, in vivo, po, 20 mg/kg, 4 h) was 11693 ng/mL, the “Mean concentration (plasma)” value ([1]; Sprague-Dawley, in vivo, po, 20 mg/kg, 8 h) was 8990 ng/mL and the “Mean concentration (plasma)” value ([1]; Sprague-Dawley, in vivo, po, 20 mg/kg, 24 h) was 586 ng/mL. For the same compound, the “Weight loss by TGA” value ([2]; from r.t. to 120° C.) was 1.83% from r.t. to, the “Total weight loss by TGA” value [2] was 1.83% total weight and the solubility at 1 h (physchem; [14]) was 1340 µg/mL (≈ 3810 µM). The solubility at 24 h (physchem; [14]) was 1500 µg/mL (≈ 4270 µM), the solubility at 1 h (physchem; FaSSIF, pH 6.5, fassif) was 312 µg/mL (≈ 888 µM) and the solubility at 24 h (physchem; FaSSIF, pH 6.5, fassif) was 103 µg/mL (≈ 293 µM). The solubility at 1 h (physchem; [15]) was 806 µg/mL (≈ 2290 µM), the solubility at 24 h (physchem; [15]) was 400 µg/mL (≈ 1140 µM) and the solubility at 1 h (physchem; FeSSIF, pH 5, fessif) was 39 µg/mL (≈ 111 µM). The solubility at 24 h (physchem; FeSSIF, pH 5, fessif) was 18 µg/mL (≈ 51.2 µM), the solubility at 1 h (physchem; [16]) was 10 µg/mL (≈ 28.5 µM) and the solubility at 24 h (physchem; [16]) was 4 µg/mL (≈ 11.4 µM). The solubility at 1 h (physchem; pH 4.5 aqueous buffer) was 35 µg/mL (≈ 99.6 µM), the solubility at 24 h (physchem; pH 4.5 aqueous buffer) was 6 µg/mL (≈ 17.1 µM) and the solubility at 1 h (physchem; pH 6.8 aqueous buffer) was 394 µg/mL (≈ 1120 µM). The solubility at 24 h (physchem; pH 6.8 aqueous buffer) was 51 µg/mL (≈ 145 µM).

With `C#CCOc1ccc(/C=C/C(=O)Nc2ccccc2C(=O)[O-])cc1OC.[K+]` [Potassium salt] the “Mean concentration (plasma)” value [1, 4] was 24600 ng/mL, the “Mean concentration (plasma)” value [1, 5] was 34467 ng/mL and the “Mean concentration (plasma)” value [1, 6] was 27200 ng/mL. The “Mean concentration (plasma)” value [1, 7] was 17000 ng/mL, the “Mean concentration (plasma)” value [1, 8] was 10850 ng/mL and the “Mean concentration (plasma)” value [1, 9] was 687 ng/mL. For the same compound, the AUCExtr [1, 10] was 1.68%, the AUClast [1, 11] was 244.45 µg·h/mL and the Cmax [1, 11] was 34733 ng/mL. For the same compound, the t1/2 [1, 11] was 4.21 h, the tmax [1, 11] was 1.33 h and the AUCInf [1, 12] was 248.674 µg·h/mL. For the same compound, the “F (fraction absorbed, bioavailability)” value ([1]; single oral dose 20 mg/kg) was 51%, the “Weight loss by TGA” value ([2]; from 25° C. to 57° C.) was 2.02% from 25 °C to and the “Weight loss by TGA” value ([2]; from 57° C. to 140° C.) was 4.40% from 57 °C to. The “Weight loss by TGA” value ([2]; from r.t. to 120° C.) was 5.34% from r.t. to, the “Total weight loss by TGA” value [2] was 6.42% total weight and the “1 h Solubility” value (FaSSIF (pH 7.5), 37° C., 1 h) was >5140 µg/mL. The “24 h Solubility” value (FaSSIF (pH 7.5), 37° C., 24 h) was >5140 µg/mL, the “1 h Solubility” value (FaSSIF, 37° C., 1 h) was 218 µg/mL and the “24 h Solubility” value (FaSSIF, 37° C., 24 h) was 211 µg/mL. For the same compound, the “1 h Solubility” value (FeSSIF (pH 7.8), 37° C., 1 h) was >5140 µg/mL, the “24 h Solubility” value (FeSSIF (pH 7.8), 37° C., 24 h) was >5140 µg/mL and the “1 h Solubility” value (FeSSIF, 37° C., 1 h) was 23 µg/mL. The “24 h Solubility” value (FeSSIF, 37° C., 24 h) was 25 µg/mL, the “1 h Solubility” value (pH 1.2 medium, 37° C., 1 h) was 18 µg/mL and the “24 h Solubility” value (pH 1.2 medium, 37° C., 24 h) was 7 µg/mL. The “1 h Solubility” value (pH 4.5 medium, 37° C., 1 h) was 30 µg/mL, the “24 h Solubility” value (pH 4.5 medium, 37° C., 24 h) was 6 µg/mL and the “1 h Solubility” value (pH 6.8 medium, 37° C., 1 h) was 111 µg/mL. The “24 h Solubility” value (pH 6.8 medium, 37° C., 24 h) was 78 µg/mL and the “Hygroscopicity by DVS” value [3] was 6.05%.

With `C#CCOc1ccc(/C=C/C(=O)Nc2ccccc2C(=O)O)cc1OC.NC(CO)(CO)CO` [Tris salt] the “Mean concentration (plasma)” value [1, 4] was 21300 ng/mL, the “Mean concentration (plasma)” value [1, 5] was 36833 ng/mL and the “Mean concentration (plasma)” value [1, 6] was 31067 ng/mL. For the same compound, the “Mean concentration (plasma)” value [1, 7] was 14467 ng/mL, the “Mean concentration (plasma)” value [1, 8] was 11317 ng/mL and the “Mean concentration (plasma)” value [1, 9] was 650 ng/mL. For the same compound, the AUCExtr [1, 10] was 1.49%, the AUClast [1, 11] was 246.642 µg·h/mL and the Cmax [1, 11] was 37367 ng/mL. The t1/2 [1, 11] was 4.02 h, the tmax [1, 11] was 1.33 h and the AUCInf [1, 12] was 250.596 µg·h/mL. The “F (fraction absorbed, bioavailability)” value ([1]; single oral dose 20 mg/kg) was 51%, the “Weight loss by TGA” value ([2]; from 0° C. to 120° C.) was 0.65% from 0 °C to and the “Weight loss by TGA” value ([2]; from 120° C. to 150° C.) was 0.20% from 120 °C to. The “Weight loss by TGA” value ([2]; from r.t. to 120° C.) was 0.65% from r.t. to, the “Total weight loss by TGA” value [2] was 0.85% total weight and the “Weight loss (TGA)” value [2] was 0.65%. The “1 h Solubility” value (pH 1.2) was 1 µg/mL, the “24 h Solubility” value (pH 1.2) was 4 µg/mL and the “1 h Solubility” value (pH 4.5) was <1 µg/mL. For the same compound, the “24 h Solubility” value (pH 4.5) was 2 µg/mL, the “1 h Solubility” value (pH 6.8) was 88 µg/mL and the “24 h Solubility” value (pH 6.8) was 67 µg/mL. For the same compound, the “1 h Solubility” value (pH 7.5) was >5030 µg/mL, the “24 h Solubility” value (pH 7.5) was 4641 µg/mL and the “1 h Solubility” value (pH 7.8) was >5100 µg/mL. For the same compound, the “24 h Solubility” value (pH 7.8) was 4212 µg/mL, the “Hygroscopicity by DVS” value [3] was 1.61% and the “Hygroscopicity by DVS” value ([3]; listed as tris(hydroxymethyl)aminomethane (Tris)) was 1.61%.

For `C#CCOc1ccc(/C=C/C(=O)Nc2ccccc2C(=O)O)cc1OC.CC(C)(C)N` [tert-Butylamine (TBA) salt], the “Mean concentration (plasma)” value [1, 4] was 18080 ng/mL, the “Mean concentration (plasma)” value [1, 5] was 26967 ng/mL and the “Mean concentration (plasma)” value [1, 6] was 29167 ng/mL. For the same compound, the “Mean concentration (plasma)” value [1, 7] was 17133 ng/mL, the “Mean concentration (plasma)” value [1, 8] was 15433 ng/mL and the “Mean concentration (plasma)” value [1, 9] was 918 ng/mL. It also gave an AUCExtr [1, 10] of 1.83%, an AUClast [1, 11] of 287.306 µg·h/mL and a Cmax [1, 11] of 32000 ng/mL. The t1/2 [1, 11] was 4.18 h, the tmax [1, 11] was 1.67 h and the AUCInf [1, 12] was 292.817 µg·h/mL. The “F (fraction absorbed, bioavailability)” value ([1]; single oral dose 20 mg/kg) was 59%, the “Weight loss by TGA” value ([2]; from 25° C. to 120° C.) was 0.94% from 25 °C to and the “Weight loss by TGA” value ([2]; from 120° C. to 190° C.) was 6.91% from 120 °C to. For the same compound, the “Weight loss by TGA” value ([2]; from r.t. to 120° C.) was 0.94% from r.t. to, the “Total weight loss by TGA” value [2] was 7.85% total weight and the “Weight loss (TGA)” value [2] was 0.94%. For the same compound, the “Weight loss (TGA)” value ([2]; listed as tert-butylamine salt) was “about 0.94%”, the “Hygroscopicity by DVS” value [3] was 1.07% and the “Hygroscopicity by DVS” value ([3]; listed as tert-butylamine (TBA)) was 1.07%. The “Hygroscopicity by DVS” value ([3]; listed as tert-butylamine salt) was “about 1.07%”.
